Measured values from patent US8466202B2, “Anthracenedione compounds” (Sunten Phytotech Co., Ltd., priority 2006, dated 2013).
“And” between values parts separate entries of the source, which are not always exact repeats. Equal entries are not always repeated. One block for each compound: values may come before it.

Key:
healthy male S.D. rats [1] = assay: Feces production in rats given Rheum palmatum Linne extracts for three weeks (Example 2); assay type: in vivo, rat; settings: oral everyday, Rheum palmatum crude extract 500, Bisacodyl 1.75, Sennosides 3.55, STD03 180, STD05-1 12, STD05-2 24 mg/kg; for Water content: feces; for Pellet count / Wet Weight: total of the six rats in the group
Method: The laxative activities by Rheum palmatum Linne extracts were studied. A crude Rheum palmatum Linne extract and STD05 were obtained from SunTen Phytotech Co., Ltd. (Jhonghe City, Taiwan). Commercial available laxatives, Through® (Chung Mei Pharmaceutical Co., Ltd.; active ingredient: Sennosides 20 mg, as Sennosides A+B 12 mg, Lot. 009A 051) and Dulcolax® (Boehringer Ingelheim, Taiwan, Ltd.; active ingredient: Bisacodyl; Lot. 480-4942) were obtained from a pharmacy.
Forty-two healthy male S.D. rats (8 weeks old; National Laboratory Animal Center, Taiwan) were divided into seven groups (six in each) and tested for the laxative activity by Rheum palmatum Linne extracts. The rats in one group were not fed with any extract or drug and used as negative controls. The rats in the second and third group were given Sennosides (3.55 mg/kg) and Bisacodyl (1.75 mg/kg), respectively, and used as positive controls. The Rats in the other four groups were given Rheum palmatum Linne crude extract (500 mg/kg), filtered crude extract STD03 (180 mg/kg), and STD05 (STD05-1: 12 mg/kg and STD05-2: 24 mg/kg), respectively. All substances were administered orally everyday for three weeks.
The experiments were carried out under conditions in which temperature, humidity, and lighting were all controlled. Each rat was fed standard rat food and water ad libitum in housing that provided a 12-hour light/dark cycle. The rats were divided into seven groups according to the body weights.
The first part of the experiment studied the effect of the above-mentioned extracts on feces production. During the three-week period, any rat that appeared dying was euthanized, dissected, and studied to check for any illness or injures. Any complications or illness were analyzed by H&E stains to determine the cause of death and to allow for dosage reconsiderations for future experiments.
During this period, the body weights of the rats were weighed each day and recorded. Feces of each rat were studied three times during the period for any unusual observations. Specifically, the amounts of feces were weighed on Days 11, 15, 18, and 21. During observation, each rat was placed in a metabolic cage. Feces were collected every twenty-four hours. The number of collected feces pellets was counted, and the pellets' shapes and colors were evaluated. After weighing the moist feces, they were dried in an oven at 100° C. for twenty-four hours. The water content from the feces was calculated according to the following formula: Water content percentage=[(wet weight−dry weight)/wet weight]×100%.
Intestine motility data were expressed as mean±SD. Data were analyzed using the one-way ANOVA method. For comparison within the groups, a Post hoc Comparison was applied. In both feces production and intestine motility analyses, p<0.05 indicates significant differences. For the feces production tests, the data for each group and each time point represent the total wet weight or pellet count of the six rats in the group.

[2] = Body weight of rats over the 10-day period (Example 3); assay type: in vivo, rat; design: Body weight Difference: unit not given here; settings: Group II, Sennosides 3.35 mg/kg/day, STD05 24 mg/kg, ARE 24 mg/kg, Chrysophanol 4 mg/kg, Emodin 4 mg/kg
Method: The aforementioned STD05 and compounds were studied for the laxative activity. Healthy male S.D. rats (BioLASCO Taiwan Co. Ltd.) were divided into three groups (i.e., Groups 1-3) in this study. In Group I, 6 rats, as negative control, were given no treatment; 6 rats, as positive control, were given 3.35 mg/kg/day Sennosides (Through®, Chung Mei Pharmaceutical Co., Ltd; Active ingredient: Sennosides 20 mg, as sennoside A+B 12 mg, Lot. 012F 006); 6 rats were treated STD05 (8 mg/kg/day); 6 rats were treated with an extract fraction containing aloe-emodin, rhein, and emodin (“ARE”, 8 mg/kg/day); 6 rats were treated with Aloe-emodin (4 mg/kg/day); and 6 rats were treated with Rhein (4 mg/kg/day). In Group II, 6 rats, as negative control, were given no treatment; 6 rats, as positive control, were given 3.35 mg/kg/day Sennosides; 6 rats were treated STD05 (24 mg/kg/day); 6 rats were treated with an extract fraction containing ARE (24 mg/kg/day); 6 rats were treated with Chrysophanol (4 mg/kg/day); and 6 rats were treated with Emodin (4 mg/kg/day). In Group III, 6 rats, as negative control, were given no treatment; 6 rats were treated with Physcoin (4 mg/kg/day); and 6 rats were treated with a mixture of chrysophanol and physcion (8 mg/kg/day, “CP”). The experiments were carried out under controlled temperature, humidity, and lighting. Each rat was fed standard rat food and water ad libitum in housing that provided a 12-hour light/dark cycle. For statistical comparison, all of the rats were divided into six sets according to the body weights. The first part of the experiment studied the effect of the test substances on feces production. During the 10-day period, the body weights of the rats were weighed each day and recorded. The rat's feces was also studied three times in the manner described above during the 10-day period for any unusual observations. During the 10-day period, any rat that appeared dying was euthanized, dissected, and examined for any illness or injury. Any complications or illness were analyzed by H&E stains to determine the cause of death and to allow for dosage reconsiderations for future experiments. Summarized in Table 4 below are the effects of the compounds, mixtures, or extracts on the rat body weights.

healthy male S.D. rats [3] = assay: Feces production in rats over the 10-day period (Example 3); assay type: in vivo, rat; settings: for increase of the feces amount (wet weight): vs control of the same group; for Pellet count / Water content / Wet Weight: Group II, Sennosides 3.35 mg/kg, STD05 24 mg/kg, ARE 24 mg/kg, Chrysophanol 4 mg/kg, Emodin 4 mg/kg
Method: During this period, the body weights of the rats were weighed each day and recorded. Feces of each rat were studied three times during the period for any unusual observations. Specifically, the amounts of feces were weighed on Days 11, 15, 18, and 21. During observation, each rat was placed in a metabolic cage. Feces were collected every twenty-four hours. The number of collected feces pellets was counted, and the pellets' shapes and colors were evaluated. After weighing the moist feces, they were dried in an oven at 100° C. for twenty-four hours. The water content from the feces was calculated according to the following formula: Water content percentage=[(wet weight−dry weight)/wet weight]×100%. (I) The results are summarized in Table 2 below: The aforementioned STD05 and compounds were studied for the laxative activity. Healthy male S.D. rats (BioLASCO Taiwan Co. Ltd.) were divided into three groups (i.e., Groups 1-3) in this study. In Group I, 6 rats, as negative control, were given no treatment; 6 rats, as positive control, were given 3.35 mg/kg/day Sennosides (Through®, Chung Mei Pharmaceutical Co., Ltd; Active ingredient: Sennosides 20 mg, as sennoside A+B 12 mg, Lot. 012F 006); 6 rats were treated STD05 (8 mg/kg/day); 6 rats were treated with an extract fraction containing aloe-emodin, rhein, and emodin (“ARE”, 8 mg/kg/day); 6 rats were treated with Aloe-emodin (4 mg/kg/day); and 6 rats were treated with Rhein (4 mg/kg/day). In Group II, 6 rats, as negative control, were given no treatment; 6 rats, as positive control, were given 3.35 mg/kg/day Sennosides; 6 rats were treated STD05 (24 mg/kg/day); 6 rats were treated with an extract fraction containing ARE (24 mg/kg/day); 6 rats were treated with Chrysophanol (4 mg/kg/day); and 6 rats were treated with Emodin (4 mg/kg/day). In Group III, 6 rats, as negative control, were given no treatment; 6 rats were treated with Physcoin (4 mg/kg/day); and 6 rats were treated with a mixture of chrysophanol and physcion (8 mg/kg/day, “CP”). The experiments were carried out under controlled temperature, humidity, and lighting. Each rat was fed standard rat food and water ad libitum in housing that provided a 12-hour light/dark cycle. For statistical comparison, all of the rats were divided into six sets according to the body weights. The first part of the experiment studied the effect of the test substances on feces production. During the 10-day period, the body weights of the rats were weighed each day and recorded. The rat's feces was also studied three times in the manner described above during the 10-day period for any unusual observations. During the 10-day period, any rat that appeared dying was euthanized, dissected, and examined for any illness or injury. Any complications or illness were analyzed by H&E stains to determine the cause of death and to allow for dosage reconsiderations for future experiments. Summarized in Table 4 below are the effects of the compounds, mixtures, or extracts on the rat body weights. During the period, feces produced by the rats were studied days 1, 5, and 10 in the same manner described above. […] In the 10-day period, the rats administered with STD05 produced more feces (wet weight) that the rats in the control group by about 32%. In addition, the pellet counts for the rats administered with STD05 were greater than those for the control rats by about 20%. Furthermore, STD05 increased the water content in feces by about 18%. The same experiments were conducted on rats administered with physcion, aloe-emodin, chrysophanol, rhein, emodin, CP, and ARE.

[4] = Enteric absorption rate (statement, no method given); settings: general statement
[5] = Side effects compared with Rheum palmatum Linne herb extracts (statement, no method given); settings: general statement

Compound: CC(=O)Oc1ccc(C(c2ccc(OC(C)=O)cc2)c2ccccn2)cc1 [Bisacodyl]
Water content (healthy male S.D. rats [1]; Day 11): 64.45%
Pellet count (healthy male S.D. rats [1]; Day 11): 116
Wet Weight (healthy male S.D. rats [1]; Day 11): 33.84 g
Water content (healthy male S.D. rats [1]; Day 15): 68.34%
Pellet count (healthy male S.D. rats [1]; Day 15): 110
Wet Weight (healthy male S.D. rats [1]; Day 15): 41.64 g
Water content (healthy male S.D. rats [1]; Day 18): 66.65%
Pellet count (healthy male S.D. rats [1]; Day 18): 81
Wet Weight (healthy male S.D. rats [1]; Day 18): 30.14 g
Water content (healthy male S.D. rats [1]; Day 21): 68.02%
Pellet count (healthy male S.D. rats [1]; Day 21): 108
Wet Weight (healthy male S.D. rats [1]; Day 21): 40.13 g

enteric absorption rate [4]: very low
Compound: Cc1cc(O)c2c(c1)C(=O)c1cccc(O)c1C2=O [Chrysophanol, chrysophanol]
Body weight Difference, Mean ([2]; group mean, Day 10 minus Day 1): 33 g
Body weight End Day 10, Mean ([2]; group mean): 376 g
Body weight Difference ([2]; individual rats, Day 10 minus Day 1): 40 and 20 and 30 (2×) and 25 and 50
Body weight End Day 10 ([2]; individual rats): 370 (3×) and 385 and 350 and 410
increase of the feces amount (wet weight) (healthy male S.D. rats [3]; Day 1): 19%
increase of the feces amount (wet weight) (healthy male S.D. rats [3]; Day 5): 16%
increase of the feces amount (wet weight) (healthy male S.D. rats [3]; Day 10): 14%
Pellet count (healthy male S.D. rats [3]; Day 1): 128
Water content (healthy male S.D. rats [3]; Day 1): 50.82%
Wet Weight (healthy male S.D. rats [3]; Day 1): 28.86 g
Pellet count (healthy male S.D. rats [3]; Day 5): 119
Water content (healthy male S.D. rats [3]; Day 5): 51.22%
Wet Weight (healthy male S.D. rats [3]; Day 5): 26.48 g
Pellet count (healthy male S.D. rats [3]; Day 10): 127
Water content (healthy male S.D. rats [3]; Day 10): 56.52%
Wet Weight (healthy male S.D. rats [3]; Day 10): 28.83 g
increase of the feces amount (wet weight), average (healthy male S.D. rats [3]; average of Days 1, 5 and 10): 16%
side effects often seen in herb extracts (cramping, bloating, gas, and diarrhea) [5]: do not have the side effects
